Results on 15 molecules are retold here after patent publication US8993565B2, “(6-oxo-1,6-dihydropyrimidin-2-yl)amide derivatives, preparation thereof and pharmaceutical use thereof as AKT(PKB) phosphorylation inhibitors” (Sanofi, priority 2009, dated 2015).

For series [1], the system named is AKT protein phosphorylated on serine 473 (pAKT-S473). As to the kind of experiment: Study of pAKT expression in PC3 human prostate carcinoma cells measured by western blotting (Test A). It counts as cell-based. The conditions noted are these: PC-3, inhibition of AKT phosphorylation (pAKT-S473), 1 to 2 hours incubation, absolute IC50, mean of two experiments. (In general: In western blotting, separated proteins are transferred to a membrane and probed.)

Series [2] deals with AKT protein phosphorylated on serine 473 (P-AKT-S473). As to the kind of experiment: Study of pAKT expression in PC3 human prostate carcinoma cells measured by the MSD Multi-spot Biomarker Detection technique (Test B). The class given is cell-based. The conditions noted are these: PC-3, inhibition of AKT phosphorylation (P-AKT-S473), MSD sandwich immunoassay, 1 to 2 h incubation, absolute IC50, mean of 2 experiments. A digest of the protocol: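 Lysate P-AKT-S473 quantified by MSD electrochemiluminescent sandwich immunoassay; inhibition vs DMSO and cell-free background, IC50 averaged over 2 experiments.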

Regarding `O=C(Cc1nc(N2CCOCC2)cc(=O)[nH]1)Nc1cccc(F)c1F` [Example 12, N-(2,3-difluorophenyl)-2-[4-(morpholin-4-yl)-6-oxo-1,6-dihydropyrimidin-2-yl]acetamide], the melting point (as a rule, the temperature of the solid-liquid transition) was 248 °C. Also, in series [1], the IC50 (usually the midpoint of a concentration-inhibition curve) is 737 nM.

Consider `O=C(Cc1nc(N2CCOCC2)cc(=O)[nH]1)Nc1ccc(F)c(CO)c1` [Example 35, N-[4-fluoro-3-(hydroxymethyl)phenyl]-2-[4-(morpholin-4-yl)-6-oxo-1,6-dihydropyrimidin-2-yl]acetamide], for which the melting point was greater than 260 °C. This molecule also had a 50% inhibitory concentration (IC50) in series [1] of 10000 nM.

Regarding `O=C(Cc1nc(N2CCOCC2)cc(=O)[nH]1)Nc1cccc(C2CC2)c1` [Example 36, N-(3-cyclopropylephenyl)-2-[4-(morpholin-4-yl)-6-oxo-1,6-dihydropyrimidin-2-yl]acetamide], the melting point was 246 °C. Also, the IC50 in series [1] was 200 nM.

Consider `O=C(Cc1nc(N2CCOCC2)cc(=O)[nH]1)Nc1ccccc1O` [Example 37, N-(2-hydroxyphenyl)-2-[4-(morpholin-4-yl)-6-oxo-1,6-dihydropyrimidin-2-yl]acetamide], for which the melting point is greater than 260 °C. In series [1], the half-inhibitory concentration (IC50) amounted to 10000 nM.

Turning to `CC(C)(C)OC(=O)NCCc1cccc(NC(=O)Cc2nc(N3CCOCC3)cc(=O)[nH]2)c1` [Example 46, 2-methylpropan-2-yl {2-[3-({[4-(morpholin-4-yl)-6-oxo-1,6-dihydropyrimidin-2-yl]acetyl}amino)phenyl]ethyl}-carbamate], the melting point was 194 °C. The molecule further had a concentration for half-maximal inhibition (IC50) in series [1] of 2500 nM.

With `Cn1c(CC(=O)Nc2cccc(Br)c2)nc(N2CCOCC2)cc1=O` [Example 69, N-(3-bromophenyl)-2-[1-methyl-4-(morpholin-4-yl)-6-oxo-1,6-dihydropyrimidin-2-yl]acetamide], the melting point was found to be 266 °C. The 50% inhibitory concentration (IC50) in series [1] came out at 250 nM.

The molecule `COCc1cc(NC(=O)Cc2nc(N3CCOCC3)cc(=O)[nH]2)ccc1F` [Example 73, N-[4-fluoro-3-(methoxymethyl)phenyl]-2-[4-(morpholin-4-yl)-6-oxo-1,6-dihydropyrimidin-2-yl]acetamide] showed a melting point of 220 °C. The half-inhibitory concentration (IC50) in series [1] is 650 nM.

With `Cn1c(CC(=O)N2CCc3cc(F)c(F)cc32)nc(N2CCOCC2)cc1=O` [Example 127, 2-[2-(5,6-difluoro-2,3-dihydro-1H-indol-1-yl)-2-oxoethyl]-3-methyl-6-(morpholin-4-yl)pyrimidin-4(3H)-one], the melting point was 250 °C. The same molecule showed an IC50 in series [2] of 61 nM.

Turning to `Cn1c(CC(=O)Nc2cccc3sccc23)nc(N2CCOCC2)cc1=O` [Example 130, N-(1-benzothiophen-4-yl)-2-[1-methyl-4-(morpholin-4-yl)-6-oxo-1,6-dihydropyrimidin-2-yl]acetamide], the melting point was 254 °C. The molecule also returned a half-inhibitory concentration (IC50) in series [2] of 70 nM.

Molecule `O=C(Cc1nc(N2CCOCC2)cc(=O)[nH]1)N1CCCc2c(Cl)cccc21` [Example 131, 2-[2-(5-chloro-3,4-dihydroquinolin-1(2H)-yl)-2-oxoethyl]-6-(morpholin-4-yl)pyrimidin-4(3H)-one] displayed a melting point of 238 °C. This molecule also registered an IC50 in series [2] of 41 nM.

`O=C(Cc1nc(N2CCOCC2)cc(=O)[nH]1)N1CCc2c(CO)cccc21` [Example 132, 2-{2-[4-(hydroxymethyl)-2,3-dihydro-1H-indol-1-yl]-2-oxoethyl}-6-(morpholin-4-yl)pyrimidin-4(3H)-one] had a melting point of 234 °C. This molecule gave a concentration for half-maximal inhibition (IC50) in series [2] of 533 nM.

As for `CN(C)C[C@H]1CN(C(=O)Cc2nc(N3CCOCC3)cc(=O)[nH]2)c2ccccc21` [Example 136, 2-(2-{(3S)-3-[(dimethylamino)methyl]-2,3-dihydro-1H-indol-1-yl}-2-oxoethyl)-6-(morpholin-4-yl)pyrimidin-4(3H)-one], the melting point is 256 °C. In addition, the half-maximal inhibitory concentration (IC50) in series [2] amounted to 26 nM.

Molecule `O=C(Cc1nc(N2CCOCC2)cc(=O)[nH]1)Nc1cccc2c1OCCN2` [Example 143, N-(3,4-dihydro-2H-1,4-benzoxazin-8-yl)-2-[4-(morpholin-4-yl)-6-oxo-1,6-dihydropyrimidin-2-yl]acetamide] had a melting point of 243 °C. In series [2], this molecule returned an IC50 of 473 nM.

`CCN(CC)CC1CN(C(=O)Cc2nc(N3CCOCC3)cc(=O)[nH]2)c2ccccc21` (stereo not drawn) [Example 145, 2-(2-{3-[(diethylamino)methyl]-2,3-dihydro-1 H-indol-1-yl}-2-oxoethyl)-6-(morpholin-4-yl)pyrimidin-4(3 H)-one] yielded a melting point of 202 °C. Moreover, the IC50 in series [2] was found to be 38 nM.

In turn, `O=C(Cc1nc(N2CCOCC2)cc(=O)[nH]1)Nc1cccc2c1NCCC2` [Example 148, 2-[4-(morpholin-4-yl)-6-oxo-1,6-dihydropyrimidin-2-yl]-N-(1,2,3,4-tetrahydroquinolin-8-yl)acetamide] came in with a melting point of 232 °C. Moreover, the IC50 in series [2] worked out at 234 nM.
